Data from article PMC6193035, “Novel small molecules affecting cell membrane as potential therapeutics for avian pathogenic Escherichia coli” (Scientific Reports, 2018).
Values after ≈ are worked out from the molar mass of the structure shown. Marks after values point to notes of the source that are not given here.

Columns and labels:
APEC O78 [1] = test: MIC and MBC determination in M63 media; type: cell-based, Escherichia coli
Method: (§1) One microlitre SM of each concentration was transferred to each well of a 96-well plate containing 100 µL of the 0.05 OD600 adjusted APEC O78 culture in M63 media. Growth was monitored in Sunrise - Absorbance microplate reader as described above. MIC was indicated by lowest concentration of SM with non-elevated OD600 measurement. MBC was determined by absence of APEC growth on LB agar plate following subculture. […] Two independent experiments were conducted.

APEC O2 = test: MIC and MBC determination in M63 media; type: cell-based; settings: Escherichia coli
APEC O8 = test: MIC and MBC determination in M63 media; type: cell-based; settings: Escherichia coli
APEC O115 = test: MIC and MBC determination in M63 media; type: cell-based; settings: Escherichia coli
APEC O109 = test: MIC and MBC determination in M63 media; type: cell-based; settings: Escherichia coli
APEC O78-53 = test: MIC and MBC determination in M63 media; type: cell-based; settings: Escherichia coli; APEC O78-53, M63 media
Method: as §1

APEC O2-211 = test: MIC and MBC determination in M63 media; type: cell-based; settings: Escherichia coli; APEC O2-211, M63 media
APEC O78 [2] = test: Bacterial cytological profiling by confocal microscopy; type: cell-based, Escherichia coli; settings: 2X MBC, 2 h
Method: Confocal microscopy was used for bacterial cytological profiling (BCP) to identify the cellular pathways targeted by SMs as described previously. […] After incubation, treated cultures were centrifuged, washed, and resuspended in 100 µL PBS. FM4-64 (#T13320 Molecular Probes/Invitrogen) (1 µg/mL) and SYTO-9 (#S34854 Molecular Probes/Invitrogen) (5 µM) were added to the bacterial cultures and incubated for 45 mins at room temperature with shaking at 150 rpm. Cultures were then centrifuged, washed, and resuspended in PBS to 1/10th volume of the original cultures.

APEC O78 [3] = test: Crystal violet (CV) uptake assay; type: cell-based, Escherichia coli; settings: 2X MBC, 30 mins; P < 0.05, Student's t-test
Method: (§2) Membrane permeability assays (crystal violet (CV) uptake and loss of 260/280 nm absorbing materials) were conducted as described previously. […] CV uptake was measured using the formula: (OD DMSO − OD SM/OD DMSO × 100). Two independent experiments in duplicates were conducted.

APEC O78 [4] = test: Loss of 260/280 nm absorbing materials assay; type: cell-based, Escherichia coli; settings: 2X MBC, 1 h
Method: as §2

[5] = tested on: intracellular APEC O1 in Caco-2 cells; test: Intracellular survival assay; type: cell-based, Escherichia coli
Method: (§3) Intracellular survival assay was conducted as described previously[28],[29] to determine the effect of cidal SMs on APEC survival in phagocytic (HD11, THP-1) and non-phagocytic (Caco-2) cells. Briefly, mid-logarithmic phase grown APEC O78, O1, and O2 were washed and adjusted to 1 × 10^7 CFU/mL in cell culture incomplete media (no FBS and antibiotics). One-hundred microlitres adjusted APEC suspension was added at multiplicity of infection (MOI) 10 to wells of 96-well cell culture plate containing cultured macrophage (HD11, THP-1) and epithelial cells (Caco-2) and incubated for 1 h and 3 h, respectively. […] The cells were then lysed with 100 µL of 0.1% Triton X-100 for 5 mins, serially diluted, and plated on LB agar plate to enumerate viable bacteria. The intracellular bacteria in SMs treated wells were compared with DMSO (1%) treated wells. Two independent experiments in duplicate wells for each concentration of SMs were conducted.

[6] = tested on: intracellular APEC O1 in HD11 cells; test: Intracellular survival assay; type: cell-based, Escherichia coli
Method: as §3

[7] = tested on: intracellular APEC O1 in THP-1 cells; test: Intracellular survival assay; type: cell-based, Escherichia coli
Method: as §3

[8] = tested on: intracellular APEC O2 in Caco-2 cells; test: Intracellular survival assay; type: cell-based, Escherichia coli
Method: as §3

[9] = tested on: intracellular APEC O2 in HD11 cells; test: Intracellular survival assay; type: cell-based, Escherichia coli
Method: as §3

[10] = tested on: intracellular APEC O2 in THP-1 cells; test: Intracellular survival assay; type: cell-based, Escherichia coli
Method: as §3

[11] = tested on: intracellular APEC O78 in Caco-2 cells; test: Intracellular survival assay; type: cell-based, Escherichia coli
Method: as §3

[12] = tested on: intracellular APEC O78 in HD11 cells; test: Intracellular survival assay; type: cell-based, Escherichia coli
Method: as §3

[13] = tested on: intracellular APEC O78 in THP-1 cells; test: Intracellular survival assay; type: cell-based, Escherichia coli
Method: as §3

For `COc1cc(CNCCc2ccc3ccccc3c2)ccc1OCC(O)CN1CCCC1` (stereo not shown) [SM2], the “MBC relative to MIC” value (APEC O78 [1]) was “identical to MIC”, the MIC (APEC O78 [1]; Escherichia coli) was 100 µM (≈ 43.5 µg/mL) and the MBC (APEC O78 [1]; Escherichia coli, subculture on LB agar) was 100 µM (≈ 43.5 µg/mL). For the same molecule, the MBC (APEC O2) was 250 µM (≈ 109 µg/mL), the MIC (APEC O2) was 200 µM (≈ 86.9 µg/mL) and the MBC (APEC O8) was 200 µM (≈ 86.9 µg/mL). It also gave an MIC (APEC O8) of 100 µM (≈ 43.5 µg/mL), an MBC (APEC O115) of 200 µM (≈ 86.9 µg/mL) and an MIC (APEC O115) of 200 µM (≈ 86.9 µg/mL). The MBC (APEC O109) was 200 µM (≈ 86.9 µg/mL), the MIC (APEC O109) was 100 µM (≈ 43.5 µg/mL) and the MBC (APEC O78-53) was 200 µM (≈ 86.9 µg/mL). The MIC (APEC O78-53) was 100 µM (≈ 43.5 µg/mL), the MBC (APEC O2-211) was 100 µM (≈ 43.5 µg/mL) and the MIC (APEC O2-211) was 100 µM (≈ 43.5 µg/mL). The “cytological profile (FM4-64 / SYTO-9 staining)” value (APEC O78 [2]) was “bright red foci at random positions throughout the cell indicating membrane defects (membrane pore formers)”, the “uptake of crystal violet compared with DMSO” value (APEC O78 [3]) was “increased the uptake of crystal violet” and the “280 nm absorbing materials in supernatant compared with DMSO” value (APEC O78 [4]) was “significantly (P < 0.05, Student’s t-test) increased”. For the same molecule, the “Absorbance 280 nm of treated supernatant” value (APEC O78 [4]; DMSO 2.58, superscript a P < 0.05 vs DMSO) was 2.86^a, the “Absorbance 260 nm of treated supernatant” value (APEC O78 [4]; DMSO 3.77, superscript a P < 0.05 vs DMSO) was 3.71 and the minimal effective concentration ([5]; Escherichia coli, O1, Caco-2, 6 h treatment, read-out: SMs intracellular APEC clearance concentration) was > 200 µM. The “concentration at which the SM significantly (P < 0.01) reduced intracellular APEC (superscript of t-statistic)” value ([5]; O1, Caco-2, 6 h) was “a (0.5X MIC)”, the minimal effective concentration ([6]; Escherichia coli, O1, HD11, 6 h treatment, read-out: SMs intracellular APEC clearance concentration) was 200 µM and the “concentration at which the SM significantly (P < 0.01) reduced intracellular APEC (superscript of t-statistic)” value ([6]; O1, HD11, 6 h) was “a (0.5X MIC)”. For the same molecule, the minimal effective concentration ([7]; Escherichia coli, O1, THP-1, 6 h treatment, read-out: SMs intracellular APEC clearance concentration) was 200 µM, the “intracellular APEC clearance concentration as multiple of MIC (superscript)” value ([7]; O1, THP-1) was “b (2X MIC)” and the “concentration at which the SM significantly (P < 0.01) reduced intracellular APEC (superscript of t-statistic)” value ([7]; O1, THP-1, 6 h) was “a (0.5X MIC)”. For the same molecule, the minimal effective concentration ([8]; Escherichia coli, O2, Caco-2, 6 h treatment, read-out: SMs intracellular APEC clearance concentration) was > 200 µM, the “concentration at which the SM significantly (P < 0.01) reduced intracellular APEC (superscript of t-statistic)” value ([8]; O2, Caco-2, 6 h) was “b (1X MIC)” and the minimal effective concentration ([9]; Escherichia coli, O2, HD11, 6 h treatment, read-out: SMs intracellular APEC clearance concentration) was 200 µM. The “intracellular APEC clearance concentration as multiple of MIC (superscript)” value ([9]; O2, HD11) was “b (2X MIC)”, the “concentration at which the SM significantly (P < 0.01) reduced intracellular APEC (superscript of t-statistic)” value ([9]; O2, HD11, 6 h) was “a (0.5X MIC)” and the minimal effective concentration ([10]; Escherichia coli, O2, THP-1, 6 h treatment, read-out: SMs intracellular APEC clearance concentration) was 100 µM. For the same molecule, the “concentration at which the SM significantly (P < 0.01) reduced intracellular APEC (superscript of t-statistic)” value ([10]; O2, THP-1, 6 h) was “b (1X MIC)”, the minimal effective concentration ([11]; Escherichia coli, O78, Caco-2, 6 h treatment, read-out: SMs intracellular APEC clearance concentration) was 100 µM and the “intracellular APEC clearance concentration as multiple of MIC (superscript)” value ([11]; O78, Caco-2) was “a (1X MIC)”. The “concentration at which the SM significantly (P < 0.01) reduced intracellular APEC (superscript of t-statistic)” value ([11]; O78, Caco-2, 6 h) was “a (0.5X MIC)”, the minimal effective concentration ([12]; Escherichia coli, O78, HD11, 6 h treatment, read-out: SMs intracellular APEC clearance concentration) was 100 µM and the “intracellular APEC clearance concentration as multiple of MIC (superscript)” value ([12]; O78, HD11) was “a (1X MIC)”. For the same molecule, the “concentration at which the SM significantly (P < 0.01) reduced intracellular APEC (superscript of t-statistic)” value ([12]; O78, HD11, 6 h) was “a (0.5X MIC)”, the minimal effective concentration ([13]; Escherichia coli, O78, THP-1, 6 h treatment, read-out: SMs intracellular APEC clearance concentration) was 100 µM and the “intracellular APEC clearance concentration as multiple of MIC (superscript)” value ([13]; O78, THP-1) was “a (1X MIC)”. The “concentration at which the SM significantly (P < 0.01) reduced intracellular APEC (superscript of t-statistic)” value ([13]; O78, THP-1, 6 h) was “a (0.5X MIC)”.
